According to publication PMC11776485 (Virulence, 2025):

Molecular target: T1, MoOxdC (Pyricularia oryzae, UniProt G4NLF1)
T1 construct: gene MGG_14061
Conditions: 50 mM citrate pH 4.0, 37 °C, 30 min; 0.2 mL of 8 mM oxalic acid in 1.5 mL; no added metal

T1 sequence (G4NLF1 1-500 limits assumed): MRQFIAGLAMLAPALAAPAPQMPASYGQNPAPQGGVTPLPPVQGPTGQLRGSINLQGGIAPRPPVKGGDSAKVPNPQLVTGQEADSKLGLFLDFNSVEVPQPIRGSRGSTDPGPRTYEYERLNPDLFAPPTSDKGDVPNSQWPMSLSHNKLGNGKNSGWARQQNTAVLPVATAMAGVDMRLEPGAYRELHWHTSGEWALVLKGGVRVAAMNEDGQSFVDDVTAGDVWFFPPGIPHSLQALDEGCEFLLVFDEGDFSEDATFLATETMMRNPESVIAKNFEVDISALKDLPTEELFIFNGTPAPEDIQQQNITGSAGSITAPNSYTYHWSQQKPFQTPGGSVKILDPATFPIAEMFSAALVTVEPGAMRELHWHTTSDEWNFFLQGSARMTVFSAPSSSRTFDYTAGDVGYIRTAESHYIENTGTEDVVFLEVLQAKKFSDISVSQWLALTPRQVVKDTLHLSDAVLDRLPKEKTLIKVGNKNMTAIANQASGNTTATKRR

O=C(O)C(=O)O [oxalic acid]
residual oxalic acid by Fe(III)-sulfosalicylate absorbance at 510 nm; formic aci: The oxalate decarboxylase activity of the purified recombinant MoOxdC protein was analyzed.
